The record followed here is patent publication US5762956A, “Transdermal contraceptive delivery system and process” (priority 1996, dated 1998).

Data set [1] can be described thus: In-vitro drug permeation study, human cadaver skin, Valia-Chien cell, HPLC. It is filed as in vitro ADME. The settings on record: from 10 cm^2 TCDS patch of Example 1, steady state. As for the experimental part: The samples taken from the receptor compartment of the diffusion cell were analyzed by high performance liquid chromatography.
The skin permeation flux of each drug was subsequently calculated from the steady state of the permeation profile.

The next data set concerns Rabbit Skin. Description: Residual drug assay of patches from dermal toxicity test (daily delivery rate into rabbit). The settings on record: for in vivo delivery rate compared with in vitro rate: rabbit vs in vitro; for Daily Delivery Rate: rabbit, N = 6, ± S.D. As for the experimental part: The test consists of an one-week primary skin irritation study on six rabbits followed by histopathological examination on each patch application. Both medicated and placebo patches of this TCDS formulation were tested on either intact or abraded skin. Based on the Draize Scale Scoring Method, the primary dermal irritation index (PDII) was given to each patch application site at 24 and 72 hours following the 7 days application period. The patches used in the primary skin irritation test were retrieved for residual drug assay to determine the amount of drugs delivered into the test animal.

Data set [2] in a line: Phase I residual drug assay of used patches (daily delivery rate). The following applies: for relationship between daily delivery rate and dosage: 1, 2 or 3 × 10 cm^2 TCDS patches; for Daily Delivery Rate: ± S.D. From the text: In this study, healthy female subjects of child-bearing age were randomly divided into 4 groups in a 4-way parallel study design (See Table 5). The study consists of three menstrual cycles which are sequentially arranged as pre-treatment, treatment and post-treatment cycles. During the pre-treatment cycle, the 48 recruited subjects were given placebo TCDS patches to study the wearability (including skin irritation and adhesion tests) while they were being screened against the inclusion/exclusion criteria specified in the clinical protocol. During the treatment cycle, each of the […] in Group A, B and C received weekly application of 1, 2 or 3 pieces of 10 cm^2 TCDS patches, respectively, while each subject in Group D received one oral contraceptive pill (each pill contains 150 μg of levonorgestrel and 35 μg of ethynyl estradiol) per day as reference.

Data set [3] in a line: Phase I serum levonorgestrel by radioimmunoassay. The format is in vivo, human (fertile Chinese women). The settings on record: Groups B and C, three weeks of patch application. The procedure:
Blood samples obtained from these three cycles of studies were assayed by radioimmunoassay (RIA) methods for their serum concentration of levonorgestrel, estradiol, progesterone, luteinizing hormone (LH) and follicle stimulating hormone (FSH). Ultrasonic measurement of follicle size and endometrium thickness measurement were also performed during the mid-treatment cycle. Bioavailability of levonorgestrel was assessed by the serum levonorgestrel profile of each subject group. Suppression of post-ovulatory progesterone peak and mid-cycle surges of LH and FSH provided hormonal indications of ovulation inhibition.

As to `C[C@]12CC[C@@H]3c4ccc(O)cc4CC[C@H]3[C@@H]1CC[C@@H]2O` [17-beta-estradiol], the “skin permeation flux / amount delivered” value in data set [1] was roughly 28.8 µg/day. Besides, the “in vivo delivery rate compared with in vitro rate” value in the data set on Rabbit Skin is listed as “higher than skin permeation rate obtained in the in vitro study”. In addition, the “Daily Delivery Rate” value in the data set with Rabbit Skin (abraded skin) came to 35.1 ± 26.70 µg/day; with Rabbit Skin (intact skin), 37.0 ± 19.77 µg/day; in data set [2] (Group A: 1 × 10 cm^2 patch/week) it was 42.1 ± 16.32 µg/day; in data set [2] (Group B: 2 × 10 cm^2 patch/week) it was 89.7 ± 28.4 µg/day; in data set [2] (Group C: 3 × 10 cm^2 patch/week) it was 110.4 ± 28.61 µg/day. Also, the “relationship between daily delivery rate and dosage” value in data set [2] is “established only for the dosages of the first and second pieces of 10 cm^2 TCDS patches”.
On to `C#C[C@]1(O)CC[C@H]2[C@@H]3CCC4=CC(=O)CC[C@@H]4[C@H]3CC[C@@]21CC` [Levonorgestrel, levonorgestrel], for which, in data set [1], the “skin permeation flux / amount delivered” value is on record as “about 60.0±9.42 μg/day”. Further, in the data set with Rabbit Skin, the “in vivo delivery rate compared with in vitro rate” value is “seems to correlate very well with the in vitro delivery rate”. Also, the “relationship between daily delivery rate and dosage” value in data set [2] was “linearly proportional to the increase in dosage of TCDS patches”. The “serum concentration of levonorgestrel versus target concentration” value in data set [3] is given as “above the target concentration throughout the three weeks of patch application”.
